System: Donor 3 COP T-Cell Lines
Experiment: ATP proliferation assay (CellTiter Glo), Donor 3 COP T-cell lines, incl. reactivity to non-canonical GA peptides
Assay type: cell-based, human
Conditions: for ATP proliferation assay: Day 14; for Reactivity (proliferation), Mean: Day 54 of culture; for Proliferation (luminescent ATP assay), Mean: Day 66 of culture, 0 μg/mL 1881

glatiramer acetate [COP]
ratio of proliferation after stimulation with COP to proliferation in response to the APC control: greater than 3.0
ATP proliferation assay (165-B6C, 10 μg/mL, control 14966): 77564 RLU
ATP proliferation assay (165-B10C, 10 μg/mL, control 10604): 54779 RLU
ATP proliferation assay (165-C4C, 10 μg/mL, control 23510): 108089 RLU
ATP proliferation assay (165-C7C, 10 μg/mL, control 12707): 63491 RLU
ATP proliferation assay (165-C9C, 10 μg/mL, control 22840): 113199 RLU
response in ATP proliferation assay (165-D2C, 165-C7C, 165-C4C, Day 39, three concentrations (Table 24)): responded comparably
ATP proliferation assay (165-D2C, 10 μg/mL, control 12767): 54895 RLU
ATP proliferation assay (165-D3C, 10 μg/mL, control 18380): 119241 RLU
ATP proliferation assay (165-D11C, 10 μg/mL, control 13302): 82759 RLU
ATP proliferation assay (165-E3C, 10 μg/mL, control 12219): 69893 RLU
ATP proliferation assay (165-E9C, 10 μg/mL, control 22512): 98168 RLU
ATP proliferation assay (165-F3C, 10 μg/mL, control 13157): 93437 RLU
ATP proliferation assay (165-F4C, 10 μg/mL, control 13598): 96289 RLU
ATP proliferation assay (165-F6C, 10 μg/mL, control 23457): 135516 RLU
ATP proliferation assay (165-F9C, 10 μg/mL, control 19736): 145768 RLU
Reactivity (proliferation), Mean (T-cell line 165-B6C, 1 μg/mL antigen, No Antigen 2358): 3878 RLU
Reactivity (proliferation), Mean (T-cell line 165-B6C, 3 μg/mL antigen, No Antigen 2358): 21455 RLU
Mean, ATP proliferation assay (T-cell line 165-B6C, 3 μg/mL, Day 46, after 3 days): 29815 RLU
Reactivity (proliferation), Mean (T-cell line 165-B6C, 10 μg/mL antigen, No Antigen 2358): 32197 RLU
Mean, ATP proliferation assay (T-cell line 165-B6C, 10 μg/mL, Day 46, after 3 days): 34502 RLU
Reactivity (proliferation), Mean (T-cell line 165-B6C, 100 μg/mL antigen, No Antigen 2358): 7969 RLU
Mean, ATP proliferation assay (T-cell line 165-B6C, Day 32, 10 μg/mL): 952 RLU
Reactivity (proliferation), Mean (T-cell line 165-B10C, 1 μg/mL antigen, No Antigen 2234): 2117 RLU
Reactivity (proliferation), Mean (T-cell line 165-B10C, 3 μg/mL antigen, No Antigen 2234): 2519 RLU
Mean, ATP proliferation assay (T-cell line 165-B10C, 3 μg/mL, Day 46, after 3 days): 8450 RLU
Reactivity (proliferation), Mean (T-cell line 165-B10C, 10 μg/mL antigen, No Antigen 2234): 6701 RLU
Mean, ATP proliferation assay (T-cell line 165-B10C, 10 μg/mL, Day 46, after 3 days): 19792 RLU
Reactivity (proliferation), Mean (T-cell line 165-B10C, 100 μg/mL antigen, No Antigen 2234): 6215 RLU
Proliferation (luminescent ATP assay), Mean (T-cell line 165-C4C, 1 μg/mL antigen): 2357
Mean, ATP proliferation assay (T-cell line 165-C4C, 1 μg/mL, Day 39): 11653
Proliferation (luminescent ATP assay), Mean (T-cell line 165-C4C, 3 μg/mL antigen): 7913
Mean, ATP proliferation assay (T-cell line 165-C4C, 3 μg/mL, Day 39): 28474
Proliferation (luminescent ATP assay), Mean (T-cell line 165-C4C, 10 μg/mL antigen): 74558
Mean, ATP proliferation assay (T-cell line 165-C4C, 10 μg/mL, Day 39): 28262
Mean, ATP proliferation assay (T-cell line 165-C7C, 1 μg/mL, Day 39): 3670
Mean, ATP proliferation assay (T-cell line 165-C7C, 3 μg/mL, Day 39): 16527
Mean, ATP proliferation assay (T-cell line 165-C7C, 10 μg/mL, Day 39): 40194
Mean, ATP proliferation assay (T-cell line 165-D2C, 1 μg/mL, Day 39): 3955
Mean, ATP proliferation assay (T-cell line 165-D2C, 3 μg/mL, Day 39): 7378
Mean, ATP proliferation assay (T-cell line 165-D2C, 10 μg/mL, Day 39): 14239
Reactivity (proliferation), Mean (T-cell line 165-D3C, 1 μg/mL antigen, No Antigen 8319): 22689 RLU
Mean, ATP proliferation assay (T-cell line 165-D3C, 1 μg/mL, Day 46, after 3 days): 1248 RLU
Reactivity (proliferation), Mean (T-cell line 165-D3C, 3 μg/mL antigen, No Antigen 8319): 50369 RLU
Mean, ATP proliferation assay (T-cell line 165-D3C, 3 μg/mL, Day 46, after 3 days): 79792 RLU
Reactivity (proliferation), Mean (T-cell line 165-D3C, 10 μg/mL antigen, No Antigen 8319): 52151 RLU
Mean, ATP proliferation assay (T-cell line 165-D3C, 10 μg/mL, Day 46, after 3 days): 86270 RLU
Reactivity (proliferation), Mean (T-cell line 165-D3C, 100 μg/mL antigen, No Antigen 8319): 10140 RLU
Mean, ATP proliferation assay (T-cell line 165-D3C, Day 32, 10 μg/mL): 3362 RLU
Reactivity (proliferation), Mean (T-cell line 165-D11C, 1 μg/mL antigen, No Antigen 4571): 3410 RLU
